# Measured values published in the supplement of paper PMC12137928.
# Where a name gives a salt, the structure may show the parent alone.
# Tested on: HCT116
# Details: 72 h
# Summary of the method: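 IC50 and maximal efficacy were derived from four-parameter Hill curve fits. The underlying CellTiter-Glo luminescence was scaled so that vehicle equals 0% and positive control equals -100%, and was then pattern-corrected. HCT116 cells had been seeded in 1536-well plates at 250 per well.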
IC50 cell viability (ICRF193 0 nM),IC50 cell viability (ICRF193 200 nM),Compound
> 45.8 µM,> 45.8 µM,CC(=O)O[C@H]1CC[C@@]2(C)C(=CC[C@@H]3[C@@H]2CC[C@]2(C)C(c4cccnc4)=CC[C@@H]32)C1 [Abiraterone acetate]
> 45.8 µM,> 45.8 µM,NC(=O)c1ncn([C@@H]2O[C@H](CO)[C@@H](O)[C@H]2O)c1N [Acadesine]
> 45.8 µM,> 45.8 µM,CC(=O)NCCCS(=O)(=O)O [Acamprosate Calcium]
> 45.8 µM,> 45.8 µM,C[C@H]1O[C@H](O[C@H]2[C@H](O)[C@@H](O)[C@@H](O[C@H]3[C@H](O)[C@@H](O)C(O)O[C@@H]3CO)O[C@@H]2CO)[C@H](O)[C@@H](O)[C@@H]1N[C@H]1C=C(CO)[C@@H](O)[C@H](O)[C@H]1O (stereo partly specified) [Acarbose]
> 45.8 µM,> 45.8 µM,CCCC(=O)Nc1ccc(OCC(O)CNC(C)C)c(C(C)=O)c1 (stereo unspecified) [Acebutolol hydrochloride]
> 45.8 µM,> 45.8 µM,O=C(O)COC(=O)Cc1ccccc1Nc1c(Cl)cccc1Cl [Aceclofenac]
> 45.8 µM,> 45.8 µM,CC(=O)O[C@@H]1C(=O)O[C@H]2[C@@H]1OC(=O)[C@@H]2OC(C)=O [Aceglatone]
> 45.8 µM,> 45.8 µM,COc1ccc2c(c1)c(CC(=O)OCC(=O)O)c(C)n2C(=O)c1ccc(Cl)cc1 [Acemetacin]
> 45.8 µM,> 45.8 µM,CC(=O)CC(c1ccc([N+](=O)[O-])cc1)c1c(O)c2ccccc2oc1=O (stereo unspecified) [Acenocoumarol]
> 45.8 µM,> 45.8 µM,CC(=O)Nc1ccc(O)cc1 [Acetaminophen]
> 45.8 µM,> 45.8 µM,CC(=O)Nc1ccccc1 [Acetanilide]
> 45.8 µM,> 45.8 µM,CC(=O)Nc1nnc(S(N)(=O)=O)s1 [Acetazolamide]
> 45.8 µM,> 45.8 µM,CC(=O)c1ccc(S(=O)(=O)NC(=O)NC2CCCCC2)cc1 [Acetohexamide]
> 45.8 µM,> 45.8 µM,CC(=O)c1ccc2c(c1)N(CCCN1CCN(CCO)CC1)c1ccccc1S2 [Acetophenazine Maleate]
> 45.8 µM,> 45.8 µM,CC(=O)c1ccc2c(c1)N(CCCN(C)C)c1ccccc1S2 [Acetopromazine maleate]
> 45.8 µM,> 45.8 µM,CC(=O)Nc1c(I)cc(I)c(C(=O)O)c1I [Acetrizoic acid]
> 45.8 µM,> 45.8 µM,CC(=O)OCC[N+](C)(C)C [Acetylcholine chloride]
> 45.8 µM,> 45.8 µM,CC(=O)N[C@@H](CS)C(=O)O [Acetylcysteine]
> 45.8 µM,> 45.8 µM,CCC(C(=O)NC(=O)NC(C)=O)c1ccccc1 (stereo unspecified) [Acetylpheneturide]
> 45.8 µM,> 45.8 µM,Nc1nc2c(ncn2COCCO)c(=O)[nH]1 [Aciclovir]
> 45.8 µM,> 45.8 µM,O=C(O)C(=O)Nc1cccc(-c2nnn[nH]2)c1 [Acitazanolast]
> 45.8 µM,> 45.8 µM,COc1cc(C)c(/C=C/C(C)=C/C=C/C(C)=C/C(=O)O)c(C)c1C [Acitretin]
> 45.8 µM,> 45.8 µM,CC(=O)OCC(=O)Nc1cc(C#N)cc(NC(=O)COC(C)=O)c1Cl [Acreozast]
> 45.8 µM,> 45.8 µM,Cc1ccc(/C(=C\CN2CCCC2)c2cccc(/C=C/C(=O)O)n2)cc1 [Acrivastine]
> 45.8 µM,> 45.8 µM,COc1ccc(-c2ccc3cc(C(=O)O)ccc3c2)cc1C12CC3CC(CC(C3)C1)C2 [Adapalene]
> 45.8 µM,> 45.8 µM,Nc1[nH]cnc2ncnc1-2 [Adenine]
> 45.8 µM,> 45.8 µM,Nc1ncnc2c1ncn2[C@@H]1O[C@H](CO)[C@@H](O)[C@H]1O [Adenosine]
> 45.8 µM,> 45.8 µM,O=S(O)CNc1ccc(S(=O)(=O)c2ccc(NCS(=O)O)cc2)cc1 [Adesulfone sodium]

IC50 cell viability (ICRF193 0 nM),IC50 cell viability (ICRF193 200 nM),Compound
> 45.8 µM,> 45.8 µM,CN1CC(O)C2=C/C(=N/NC(N)=O)C(=O)C=C21 (stereo unspecified) [Adrenochrome semicarbazone]
> 45.8 µM,> 45.8 µM,CCCCCCCCCCCCCCCCC(C(=O)O)C(O)(CC(=O)O)C(=O)O (stereo unspecified) [Agaric acid]
> 45.8 µM,> 45.8 µM,COc1ccc2cccc(CCNC(C)=O)c2c1 [Agomelatine]
> 45.8 µM,> 45.8 µM,CC(=O)SC[C@@H](C)C(=O)N1CCC[C@H]1C(=O)N[C@@H](Cc1ccccc1)C(=O)O [Alacepril]
> 45.8 µM,> 45.8 µM,C[C@H](N)C(=O)N[C@@H](C)C(=O)N[C@H]1[C@@H]2CN(c3nc4c(cc3F)c(=O)c(C(=O)O)cn4-c3ccc(F)cc3F)C[C@@H]21 [Alatrofloxacin mesylate]
> 45.8 µM,> 45.8 µM,C=CCOc1ccc(CC(=O)O)cc1Cl [Alclofenac]
> 45.8 µM,> 45.8 µM,CCC(=O)OCC(=O)[C@@]1(OC(=O)CC)[C@H](C)C[C@H]2[C@H]3[C@H]([C@@H](O)C[C@@]21C)[C@@]1(C)C=CC(=O)C=C1C[C@H]3Cl [Alclometasone dipropionate]
> 45.8 µM,> 45.8 µM,C=CC[N@@+]12CC[C@@]34c5ccccc5N5/C=C6/[C@H]7C[C@H]8[C@@]9(CC[N@@+]8(CC=C)C/C7=C/CO)c7ccccc7N(/C=C(/[C@@H](C[C@@H]31)/C(=C\CO)C2)[C@H]54)[C@@H]69 [Alcuronium chloride]
> 45.8 µM,> 45.8 µM,CCc1cc2c(cc1N1CCC(N3CCOCC3)CC1)C(C)(C)c1[nH]c3cc(C#N)ccc3c1C2=O [Alectinib]
> 45.8 µM,> 45.8 µM,COc1cc2nc(N(C)CCCNC(=O)C3CCCO3)nc(N)c2cc1OC (stereo unspecified) [Alfuzosin hydrochloride]
> 45.8 µM,> 45.8 µM,Cc1ccccc1C(=O)N1CC/C(=N\OS(=O)(=O)O)c2ccc(Cl)cc21 [Alilusem potassium]
> 45.8 µM,> 45.8 µM,COCCCOc1cc(C[C@@H](C[C@H](N)[C@@H](O)C[C@H](C(=O)NCC(C)(C)C(N)=O)C(C)C)C(C)C)ccc1OC [Aliskiren hemifumarate]
> 45.8 µM,> 45.8 µM,NC(=O)NC1NC(=O)NC1=O (stereo unspecified) [Allantoin]
> 45.8 µM,> 45.8 µM,C=CCOc1cc(Cl)ccc1C(=O)NCCN(CC)CC [Alloclamide]
> 45.8 µM,> 45.8 µM,Oc1ncnc2[nH]ncc12 [Allopurinol]
> 45.8 µM,> 45.8 µM,C=CCNC(N)=S [Allylthiourea]
> 45.8 µM,> 45.8 µM,CN(C)CCc1c[nH]c2ccc(CS(=O)(=O)N3CCCC3)cc12 [Almotriptan]
> 45.8 µM,> 45.8 µM,Cc1[nH]cnc1CN1CCc2c(c3ccccc3n2C)C1=O [Alosetron hydrochloride]
> 45.8 µM,> 45.8 µM,C=CCc1ccccc1OCC(O)CNC(C)C (stereo unspecified) [Alprenolol]
> 45.8 µM,> 45.8 µM,CN(C)c1nc(N(C)C)nc(N(C)C)n1 [Altretamine]
> 45.8 µM,> 45.8 µM,CCN(CCCc1ccccc1)CCCc1ccccc1 [Alverine citrate]
> 45.8 µM,> 45.8 µM,C[C@H]1CN(C[C@H](Cc2ccccc2)C(=O)NCC(=O)O)CC[C@@]1(C)c1cccc(O)c1 [Alvimopan]
> 45.8 µM,> 45.8 µM,NC12CC3CC(CC(C3)C1)C2 [Amantadine hydrochloride]
> 45.8 µM,> 45.8 µM,CC[N+](CC)(CCNC(=O)C(=O)NCC[N+](CC)(CC)Cc1ccccc1Cl)Cc1ccccc1Cl [Ambenonium chloride]
> 45.8 µM,> 45.8 µM,COC(c1ccccc1)(c1ccccc1)[C@H](Oc1nc(C)cc(C)n1)C(=O)O [Ambrisentan]
> 45.8 µM,> 45.8 µM,Nc1c(Br)cc(Br)cc1CN[C@H]1CC[C@H](O)CC1 [Ambroxol hydrochloride]
> 45.8 µM,> 45.8 µM,CC1(C)S[C@@H]2[C@H](/N=C/N3CCCCCC3)C(=O)N2[C@H]1C(=O)O [Amdinocillin]

Compound,IC50 cell viability (ICRF193 0 nM),IC50 cell viability (ICRF193 200 nM)
CC(=O)Nc1cc([As](=O)(O)O)ccc1O [Acetarsol],> 45.8 µM,> 45.8 µM
O=C(O[C@H]1C[N+]2(CCCOc3ccccc3)CCC1CC2)C(O)(c1cccs1)c1cccs1 [Aclidinium (Bromide)],> 45.8 µM,> 45.8 µM
CCN1C[C@]2(COC)[C@H](O)C[C@H](OC)[C@@]34[C@@H]5C[C@@]6(O)[C@H](OC(=O)c7ccccc7)[C@@H]5[C@@](OC(C)=O)([C@@H]([C@H](OC)[C@H]23)[C@@H]14)[C@@H](O)[C@@H]6OC [Aconitine],> 45.8 µM,> 45.8 µM
Cc1ccccc1-n1c(CF)nc2ccc(N)cc2c1=O [Afloqualone],> 45.8 µM,> 45.8 µM
CC[C@H]1[C@@H]2C[C@H]3[C@@H]4N(C)c5ccccc5[C@]45C[C@@H]([C@@H]2[C@H]5O)N3[C@@H]1O [Ajmaline],> 45.8 µM,> 45.8 µM
C=CCC1=C(C)C(OC(=O)C2C(C=C(C)C)C2(C)C)CC1=O (stereo unspecified) [Allethrin],> 45.8 µM,> 45.8 µM
C=CC[C@]1(O)CC[C@H]2[C@@H]3CCC4=CCCC[C@@H]4[C@H]3CC[C@@]21C [Allylestrenol],> 45.8 µM,> 45.8 µM
C=CC[C@]1(O)CC[C@H]2[C@@H]3CCC4=CC(=O)CCC4=C3C=C[C@@]21C [Altrenogest],> 45.8 µM,> 45.8 µM
